Measurements reported in US11401376B2, “Chemical compounds for coating of nanostructures” (Spago Nanomedical AB, priority 2017, dated 2022).

What was measured:
Format in all cases: physicochemical
[1] = Stability of coated nanostructures on manganese loading / process conditions (GFC, Example 18)
Experimental: 200 ml of the crude solution of coated nanostructures of Example 13b was added a solution of 0.256 g MnCl2.4H2O dissolved in 2.56 ml ethylene glycol. The pH was adjusted to 4.07 with 1 M NaOH. The manganese solution was added to the reaction. An aliquot A was taken out. The reaction was heated at 100° C. for 25 h 30 min after which the temperature descended to ambient room temperature. An aliquot B was withdrawn.

[2] = Heat treatment, loss of coating (Example 17); details: for Loss of coating: coated nanostructures, 80° C. for 30 minutes, washed on 10 kDa filter, Si/P ratio by ICP-OES
Experimental: The sample was moved to a 20 mL flask and degassed by three N2-vacuum cycles and was then kept under N2. The sample was heated in a silicon oil bath at 80° C. for 30 minutes and was then cooled to ambient room temperature. A reference aliquot was withdrawn (A). The remaining sample was washed with four times with milliQ water on a 10 kDa Vivaspin 6 centrifugation filter (Sartorious). A reference aliquot (B) was withdrawn from the retentate. Reference aliquots A, and B were analyzed with ICP-OES.

[3] = Calcium induced aggregation of the coated nanostructures (Example 15); details: 0-8 mM CaCl2, 10 mM Tris-HCl 150 mM NaCl pH 7.4, 1 h room temperature
Experimental: Volumes of nanostructure were added to 1 ml aliquots of 10 mM Tris-HCl 150 mM NaCl pH 7.4 containing 0, 0.5, 1, 2, 4 and 8 mM CaCl2) in microcentrifuge tubes so that the final concentration of phosphorus was 0.5 mM. The samples were vortexed, incubated at room temperature for 1 h and centrifuged for 10 min at 12000×g. The supernatants (700 μl) were removed and analyzed by ICP for phosphorus concentrations. The phosphorus concentrations were normalized to the concentration in corresponding samples without CaCl2) and plotted as ‘% remaining in solution’ against the concentration of CaCl2) in the reaction mixture. When 90% or more remains in solution the material is considered robust against calcium induced aggregation.

| Substance | stability of coated nanostructures under the coating / process conditions [1] | Loss of coating [2] | hydrolysis of the coating bound to polymeric nanostructures ([2]; neutral to basic conditions) | Ca resistance [3] |
| --- | --- | --- | --- | --- |
| N,N-bis(prop-3-trimethoxysilyl-1-yl)-2-[ω-methyl-(ethyleneoxy)8-11]acetamide [Compound 54] | degraded substantially |  |  |  |
| 4-[ω-methyl-(ethyleneoxy)12-20]hepta-1,6-diene [Compound 43] |  | 0% |  |  |
| 1-[ω-methyl-(ethyleneoxy)12-20]-3-(prop-3-triethoxysilyl-1-yl- [A] |  | 5% | prone to slow hydrolysis | Y (When 90% or more remains in solution the material is considered robust against calcium induced aggregation) |
